Data from US6566129B1, “Transformed cells useful for the control of pests” (University of Florida Research Foundation, Inc., priority 1999, dated 2003).
Ends that are not written are not given here.

Assays:
Type in all cases: in vivo
Aedes aegypti larvae [1] = assay: Effect of feeding TMOF-R analogues on Aedes aegypti larvae (LC50); details: fed in microtiter plates with yeast particles for 5 to 6 days; read-out: LC50 (mM ± S.E.M.)
Procedure: TMOF analogues (5 to 8 amino acids in length, and polymers of these analogues) in which Arg was added at the C-terminus were evaluated to determine their effect on larval growth and development. A series of analogues were synthesized and tested by feeding them to mosquito larvae at concentrations of (0.5 to 5.0 mg/ml; Table 4). Concentrations of 2.0 to 0.065 mg/ml were used to feed mosquito larvae and calculate the Lethal Dose at 50% mortality (LD50; Table 4) of the TMOF analogues. […] In both cases larval death and trypsin biosynthesis inhibition was noted (Table 4 and 5). […] The advantage of using short analogues connected by Arg is that they can be digested in the gut into short TMOF analogues that can penetrate the midgut much faster than longer analogues.
Individual, newly hatched Aedes aegypti larvae were maintained in separate microtiter wells on a diet of autoclaved yeast (1 mg/ml). The diet was supplemented with TMOF analogues (Table 4). An identical number of larvae were maintained on yeast served as a control. […] All control groups survived and larval growth and development were normal. Larvae that were fed TMOF analogues had increased mortality, particularly when the larvae where fed the concentrations of the analogues higher than 2 mg/ml (Table 4).
Since larvae swallow only a small portion of the yeast particles that adsorbed the analogues it is assumed that approximately I to 20 ng are taken orally at the high concentrations. Using the various concentrations a lethal concentration that caused 50% mortality (LC50) for the mosquito larvae was calculated (Table 4). The results presented in Table 4 clearly indicate that the short TMOF-R analogues are very effective, especially the (DPAR)4 (SEQ ID NO. 61) polymer that is broken into 4 DPARs (SEQ ID NO. 60) in the gut.

Aedes aegypti larvae [2] = assay: Effect of TMOF and its analogue peptides on mosquito larvae (feeding, LD50); details: newly hatched larvae on autoclaved yeast 1 mg/ml, microtiter plates, 7 days
Description: TMOF can traverse the gut epithelium, enter the hemolymph and bind a gut receptor (Borovsky, D. and F. Mahmood (1995) “Feeding the mosquito Aedes aegypti with TMOF and its analogs; effect on trypsin biosynthesis and egg development,” Regulatory Peptides57:273-281; Borovsky, et al. (1994) “Characterization and localization of mosquito-gut receptors for trypsin modulating oostatic factor using complementary peptide immunochemistry” FASEB J. 8:350-355.). […] To find out if truncated TMOF peptides have an effect on larval growth and development, a series of peptides were synthesized and tested by feeding them to mosquito larvae at concentrations of 0 to 5.0 mg/ml (Table 3). Individual, newly hatched Aedes aegypti larvae were maintained in separate microtiter wells on a diet of autoclaved yeast (1 mg/ml). The diet was supplemented with TMOF peptides (Table 3). An identical number of larvae maintained on yeast served as a control. […] All control groups survived and larval growth and development was normal. Since larvae swallow only a small portion of the yeast particles that adsorbed the peptides, it is assumed that approximately 1 to 20 ng are taken orally at the high concentrations.

trypsin biosynthesis = assay: Effect of injected TMOF-R analogues on trypsin biosynthesis in Heliothis virescens (BApNA); details: 2nd instar larvae, 24 hours after injection
Procedure: Individual second instar larvae of H. virescens were injected with TMOF-R analogues (10 to 0.25 μg per larva) and maintained in separate plastic cups on artificial diet. Twenty-four hours after the injections 3 groups of larvae (3 per group) were assayed for trypsin biosynthesis using BApNA (trypsin specific substrate; Table 5).

Substance | LC50 (Aedes aegypti larvae [1]) | LD50 mM ± S.E.M. (Aedes aegypti larvae [2]) | Inhibition (% ± S.E.M.) of trypsin biosynthesis (trypsin biosynthesis; 0.25 μg/injection) | Inhibition (% ± S.E.M.) of trypsin biosynthesis (trypsin biosynthesis; 0.5 μg/injection) | Inhibition (% ± S.E.M.) of trypsin biosynthesis (trypsin biosynthesis; 1 μg/injection) | Inhibition (% ± S.E.M.) of trypsin biosynthesis (trypsin biosynthesis; 10 μg/injection)
YDPAPPPPPP [YDPAP6, reference compound] | 0.2 ± 0.02 mM | 0.2 ± 0.02 mM | 19.5 ± 0.7% | 11 ± 1% | 25 ± 2% | 56%
YDPAPR [YDPAPR] | 0.24 ± 0.02 mM | – | 11 ± 1% | 14 ± 1% | 31.5 ± 2% | 53 ± 25%
YDPAR [YDPAR] | 0.12 ± 0.07 mM | – | – | 1 ± 0.07% | 39 ± 2% | 33.5 ± 9%
